Results from US20070037736A1, “Therapeutic composition comprising the KAL protein and use of the KAL protein for the treatment of retinal, renal, neuronal and neural injury” (INSTITUT PASTEUR, priority 1997, published 2007).

What was measured:
[1] = tested on: olfactory neurons (line 24); test: Adhesion and peptide/serum inhibition assay, colorimetric; format: cell-based, rat; details: for percentage of olfactory neurons (line 24) adherent on substrate: substrate coated to microtiter wells
Protocol: (§1) Adhesion assays were performed as described in (à compléter) with some modifications. Coating with the various molecules, at the indicated concentrations in 0.5 ml PBS, was performed in plastic 24-well multidishes (Nunclon™) at 37° C. (1 h or overnight).The cells were then washed three times with PBS, coating blocked with 1% heat-inactivated BSA (à compléter) for at least 1 h at 37° C., followed by three PBS washes, before addition of the cells (10^6 cells per ml in serum-free medium containing 0.1% heat-inactivated BSA). In standard experiments, purified KAL was applied at 3 μg/ml. Other substrates were used as control, fibronectin (20% g/ml) and poly-L-lysine (100 μg/ml).
(§2) Cells were incubated for 30 min to 1 h on coated wells. Medium was then aspirated and unbound cells removed by one wash with PBS. The adherent cells were fixed with […] paraformaldehyde (PFA) in PBS and stained with 0.1% crystal violet. Quantification of the attached cells was performed using a colorimetric method (à compléter). Data are expressed as the percentage of adherent cells on each tested substrate with reference to poly-L-lysine. Assays in triplicate were repeated in three independent experiments.
(§3) A 32 aminoacid peptide (32R1-FIG. 24) was synthesized (Syntiem laboratory). Control peptides were C17 (NH2CSLVPTKKKRRKTTDGF-COON) (SEQ ID NO:7) derived from the second fibronectin type III repeat of human KAL and C 16V (NHzCGSYANNNRYGRDPPTSV-000H), (SEQ ID NO:8) derived from the EYA1 protein (a completer). The peptides, at various concentrations (10 to 30 μg/ml), were directly adsorbed on polystyrene microtiter wells (Immulon 4, Nunc). Adhesion assays were performed as described above.
In peptide inhibition assays, cells were preincubated with the peptides at different concentrations (10 to 100 μg/ml) for 1 h at 4° C., then plated to KAL-coated wells, and incubated for a further 30 min period of time.

[2] = tested on: olfactory neurons (line 24); test: Spreading and neurite growth on coated substrates; format: cell-based, rat; details: for mean neurite length per olfactory neuron: mean ± SEM
Protocol: FIG. 28: Mean neurite length on the different substrates after one hour, two hours and eight hours in vitro. Mean value±SEM. More than 100 neurons were analyzed in each experimental condition.
Cells, in serum-free medium containing 0.1% heat inactivated BSA were seeded on KAL- or laminin-coated wells, and maintained for 20 min to 22 h at 37° C. Adherent cells were fixed, stained with toluidine blue, and photographied with an inverted microscope.

PC12 cells [3] = test: Adhesion and inhibition assay, colorimetric; format: cell-based, rat; details: data not shown
Protocol: as §1, §2
Cells were incubated for 5 min at room temperature in HBSS containing 5 mM EDTA, washed once with HBSS and preincubated for 1 h at 4° C. in HBSS containing 0.1% BSA in the absence or in the presence of Ca^++ and/or Mg^++ prior plating.
Heparin, heparan sulfate or chondroitin sulfate (up to 1 mg/ml in PBS) was added in KAL-coated-BSA-saturated wells, and allowed to interact for 2 h at 37° C. After three washings with PBS, CHO-K1or PC12 cells were plated, and incubated as usual.
as §3, with “Adhesion assays were performed as described above.” left out

CHO-K1 cells = test: Adhesion and inhibition assay, colorimetric; format: cell-based, Chinese Hamster
Protocol: as §1, §2
Heparin, heparan sulfate or chondroitin sulfate (up to 1 mg/ml in PBS) was added in KAL-coated-BSA-saturated wells, and allowed to interact for 2 h at 37° C. […]

CHO-677 cells = test: Adhesion assay with HS-deficient mutant cells; format: cell-based, Chinese Hamster
Text: The parental CHO cell line and the human KAL-transfected CHO clones (1-1 and 2-3) were cultivated in DMEM medium supplemented with 8% fetal calf serum (PAA, Jacques Boy, France). • Cells from the olfactory neuronal line 13.S.1.24 also named “line 24” (kindly provided by Dr. Astic, Lyon, France) were cultivated in DMEM supplemented with 10% calf serum. Porcine kidney epithelial cells (LLCPK) ATCC NO CRL1392 • Mouse GnRH neurons (GT1, subclone 1) • Wild-type CHO-K1, mutant CHO-K1-677 (Lidholt K. et al., 1992) and CHO-K1-606 (Bame et al., 1994) cell lines were provided to us by Dr. Esko, the mutant CHO-K1-745 (Esko et al., 1987) cell line was obtained from ATCC. The CHO-K1-677 cells display undetectable levels of heparan-sulfate (HS), but synthesize chondroitin sulfate (CS) at a level 3 times higher than wild-type CHO-K1 cells. The CHO-K1-606 cells express HS and CS at levels similar to those observed in wild-type, but HS is 2 to 3 times less sulfated than in wild-type cells. The CHO-K1-745 cells, deficient in xylosyltransferase, synthesize neither HS nor CS (Esko et al., 1987). Wild-type and mutant CHO-K1cells were maintained in Ham F12 medium supplemented with 10% fetal calf serum.
as §1, with “Other substrates were used as control, fibronectin (20% g/ml) and poly-L-lysine (100 μg/ml).” left out
(§4) Cells were incubated for 30 min to 1 h on coated wells. […] Quantification of the attached cells was performed using a colorimetric method (à compléter). Data are expressed as the percentage of adherent cells on each tested substrate with reference to poly-L-lysine. […]

[4] = tested on: P5 cerebellar granule cells; test: Adhesion assay, colorimetric, relative to poly-L-lysine; format: cell-based, mouse; details: 1 hour
Protocol: as §1, §2

PC12 cells [5] = test: Adhesion assay on coated wells, cell counter; includes antibody, heparin and R1-FNIII inhibition; format: cell-based, rat
Protocol: (§5) 24-well microtiter plates were coated at 37 °C overnight with 20 μg/ml of laminin, 5μg/ml of KAL in PBS, pH=7.4. The plates were washed twice with PBS and non specific sites were blocked by the addition of 1% BSA in PBS for 1 hour at 37° C. Wells were washed twice with PBS. Cerebellar neurons or PC12 cells were resuspended in DMEM to a final concentration of 10^6 cells/ml. 500 μl of this suspension was added to each coated well. Cells were also added to control wells that had been coated with BSA alone. Plates were incubated at 37° C. for 90 min in a 5% CO2 humidified atmosphere. The wells were washed gently twice with 0.5 ml PBS. To remove adherent cells from the wells, 0.5 ml of 0.05% trypsin-EDTA were added to each well. After 10 min at 37 °C, the 0.5 ml of trypsin-EDTA containing the detached cells were removed and the number of cells was determined by using a cell counter (Coutler, ZM equipped with a Coultronic 256 channelizer).
(§6) Each cell adhesion assay was carried out in triplicate. The ration of adherent cells with respect to the total number of cell ×100 was determined as the % of cell adhesion.
For inhibition of cell adhesion, 5 ×10^5 PC12 cells were deposited on areas previously coated with KAL and with antiserum directed against the human KAL protein at different concentrations and treated as described for adhesion assay. […]

cerebellar granule cells = test: Adhesion assay on coated wells, adherent cells counted with a cell counter (% of total cells); format: cell-based, mouse; details: coated dishes, 90 minute incubation
Protocol: Cerebellar cell cultures. Dissociated cell cultures were obtained from Swiss mouse cerebella on postnatal day 5. At this age, granule cells account for up to 90% of the total cell population, glial cells included. Cells were dissociated by combined trituration and trypsinisation, and grown in chemically defined medium DMEM/Ham's F12 (3 vol/1 vol) containing 0.2 mM glutamine, 5 μg/ml insulin, 100 μg/ml tranferrin, 20 nM progesterone, […] purrescine, 30 nM selenium 100 U/ml penicillin and 0.1 mg/ml streptomycin.
as §5, with “Cells were also added to control wells that had been coated with BSA alone. Plates were incubated at 37° C. for 90 min in a 5% CO2 humidified atmosphere. The wells were washed gently twice with 0.5 ml PBS. To remove adherent cells from the wells, 0.5 ml of 0.05% trypsin-EDTA were added to each well.” left out
as §6

[6] = tested on: cerebellar granule neurons (aggregates); test: Survival and neurite outgrowth of granule cell aggregates on coated substrates; format: cell-based, mouse; details: 48 hours culture
Protocol: Reaggregate cultures of cerebellar neurons from mice on postnatal day-5 were prepared according to Gao et al. (1995). After dissociation, cells were further purified by preplating on a poly-L-Lysine treated (25 μg/ml) substrate for 30 min and plated in uncoated 96-well dishes (5 10^5 cells/well) in BME plus 10% horse serum, 5% fetal calf serum, 9 mg/ml glucose, 0.3 mg/ml glutamine, 50 U/ml penicillin and 0.1 mg/ml streptomycin. Aggregates (100-200 cells) were harvested after 24 h to be used in coculture experiments.
prepared as described in the Materials and Methods section. Cerebellar granule neurons were seeded on surfaces that had been coated with KAL protein. Polylysine and bovine serum albumin (BSA) were used as positive and negative controls respectively.

CHO-745 cells = test: Adhesion assay with HS- and CS-deficient mutant cells; format: cell-based, Chinese Hamster; details: KAL substrate
Text: (§7) The parental CHO cell line and the human KAL-transfected CHO clones (1-1 and 2-3) were cultivated in DMEM medium supplemented with 8% fetal calf serum (PAA, Jacques Boy, France). • Cells from the olfactory neuronal line 13.S.1.24 also named “line 24” (kindly provided by Dr. Astic, Lyon, France) were cultivated in DMEM supplemented with 10% calf serum. Porcine kidney epithelial cells (LLCPK) ATCC NO CRL1392 • Mouse GnRH neurons (GT1, subclone 1) • Wild-type CHO-K1, mutant CHO-K1-677 (Lidholt K. et al., 1992) and CHO-K1-606 (Bame et al., 1994) cell lines were provided to us by Dr. Esko, the mutant CHO-K1-745 (Esko et al., 1987) cell line was obtained from ATCC. The CHO-K1-677 cells display undetectable levels of heparan-sulfate (HS), but synthesize chondroitin sulfate (CS) at a level 3 times higher than wild-type CHO-K1 cells. The CHO-K1-606 cells express HS and CS at levels similar to those observed in wild-type, but HS is 2 to 3 times less sulfated than in wild-type cells. The CHO-K1-745 cells, deficient in xylosyltransferase, synthesize neither HS nor CS (Esko et al., 1987). […]
as §4

CHO-606 cells = test: Adhesion assay with mutant cells expressing undersulfated HS; format: cell-based, Chinese Hamster; details: KAL substrate, versus wild-type CHO-K1
Text: as §7, §4

NH2CSLVPTKKKRRKTTDGF-COON [17R2, reference compound]
effect of preincubation with peptide on adhesion to KAL ([1]; 50 μM): had no effect
percentage of olfactory neurons (line 24) adherent on substrate [1]: no adhesion

NHz-RPSRWYQFRVAAVNVHGTRGFTAPSKHFRSSK-000H [32R1]
effect of preincubation with peptide on adhesion to fibronectin and laminin substrates [1]: had no effect
concentration of peptide giving complete inhibition of adhesion to KAL substrate ([1]; cells preincubated with peptide): 26 µM
percentage of olfactory neurons (line 24) adherent on substrate [1]: 80%
mean neurite length per olfactory neuron ([2]; eight hours after plating): 63 (±2) μm
mean neurite length per olfactory neuron ([2]; one hour on substrate): 32 (±4) μm
adhesion of PC12 cells on peptide substrate (PC12 cells [3]; compared with olfactory neurons): same results

chondroitinase ABC
decrease of adhesion of CHO-K1 cells on KAL after enzyme treatment (CHO-K1 cells; cells treated prior plating): about 50%
effect of enzyme treatment of CHO-677 cells on adhesion on fibronectin substrate (CHO-677 cells; data not shown): did not affect adhesion
effect of enzyme treatment of CHO-677 cells on adhesion to KAL (CHO-677 cells; increasing concentrations, prior plating): virtually complete inhibition

O=C(O)CN(CCN(CC(=O)O)CC(=O)O)CC(=O)O [EDTA]
effect of chelating Ca++ and Mg++ on adhesion of PC12 cells to KAL (PC12 cells [3]; cells incubated with EDTA for 5 minutes prior plating): did not modified the amount of adhering cells

laminin [reference compound]
percentage of cell adhesion relative to PLL substrate (set as 100%) [4]: 50%

fibronectin [reference compound]
mean neurite length per olfactory neuron ([2]; eight hours after plating): 63 (±2,5) μm
mean neurite length per olfactory neuron ([2]; one hour on substrate): 46 (±4) μm

heparin
inhibition of CHO-K1 cell adhesion on KAL (CHO-K1 cells; KAL-coated wells preincubated with 100 μg/ml): approximately 50%
heparin concentration from which adhesion of PC12 cells to KAL protein was inhibited (PC12 cells [5]; heparin present in KAL-coated wells): ≥ 0.03 mg/mL
inhibition of PC12 cell adhesion on KAL (PC12 cells [3]; HS or CS pretreatment of KAL-coated wells): 50%

NHzCGSYANNNRYGRDPPTSV-000H [C16V, reference compound]
percentage of olfactory neurons (line 24) adherent on substrate [1]: no adhesion

B1: KAL protein: recombinant human KAL gene product (680 aa, SwissProt P23352) purified from transfected CHO cells CHKAL2-3/d11 (protein)
chain: AGPGAAAARRLDESLSAGSVQRAPCASRCLSLQITRISAFFQHFQNNGSLVWCQNHKQCSKCLEPCKESGDLRKHQCQSFCEPLFPKKSYECLTSCEFLKYILLVKQGDCPAPEKASGFAAACVESCEVDNECSGVKKCCSNGCGHTCQVPKTLYKGVPLKPRKELRFTELQSGQLEVKWSSKFNISIEPVIYVVQRRWNYGIHPSEDDATHWQTVAQTTDERVQLTDIRPSRWYQFRVAAVNVHGTRGFTAPSKHFRSSKDPSAPPAPANLRLANSTVNSDGSVTVTIVWDLPEEPDIPVHHYKVFWSWMVSSKSLVPTKKKRRKTTDGFQNSVILEKLQPDCDYVVELQAITYWGQTRLKSAKVSLHFTSTHATNNKEQLVKTRKGGIQTQLPFQRRRPTRPLEVGAPFYQDGQLQVKVYWKKTEDPTVNRYHVRWFPEACAHNRTTGSEASSGMTHENYIILQDLSFSCKYKVTVQPIRPKSHSKAEAVFFTTPPCSALKGKSHKPIGCLGEAGHVLSKVLAKPENLSASFIVQDVNITGHFSWKMAKANLYQPMTGFQVTWAEVTTESRQNSLPNSIISQSQILPSDHYVLTVPNLRPSTLYRLEVQVLTPGGEGPATIKTFRTPELPPSSAHRHLKHRHPHHYKPSPERY
concentration of KAL protein giving maximum percentage of cell adhesion (PC12 cells [5]; coating concentration, results not shown, cell type not specified): 5 µg/mL
percentage of olfactory neurons (line 24) adherent on substrate [1]: 70%
percentage of adherent cells relative to the total number of cells deposited (cerebellar granule cells): 80%
survival and neurite outgrowth of granule cell aggregates on coated surface [6]: large halo of neuritic processes
stimulation of neurite elongation by comparison with fibronectin and peptide 32R1 ([2]; eight hours after plating): 30%
mean neurite length per olfactory neuron ([2]; eight hours after plating): 81 (±5) μm
mean neurite length per olfactory neuron ([2]; one hour on substrate): 66 (±2,5) μm
adhesion of CHO-745 cells on the substrate (CHO-745 cells): No adhesion
percentage of cell adhesion relative to PLL substrate (set as 100%) [4]: 80%
decrease of adhesion of CHO-677 cells compared to wild-type CHO-K1 cells (CHO-677 cells; KAL substrate): about 70%
adhesion of CHO-606 cells to the substrate (CHO-606 cells): comparable to that found in wild-type
